Reference: patent EP0619313A1, “LITHIUM SALT OF 2-O-ALK[…]” (TSUMURA & CO., priority 1992, dated 1994)

Legend:
[1] = system: rabbit defibrinated blood; assay: Hemolysis test with rabbit defibrinated blood; assay type: cell-based; settings: not more than 1 µg/ml in physiological saline; 37°C for 1 hour; macroscopic observation of the supernatant
Description: A physiological saline solution containing 2-O-octadecylascorbic acid lithium obtained in Example 1 below was warmed to 37°C, put in a Spitz roll, provided with rabbit defibrinated blood (Note)(0.1 ml) previously warmed to 37°C, shaken for mixing gently and warmed at 37°C for 1 hour. Then, this liquid was subjected to centrifugation. Macroscopic observation was made as to whether the supernatant had hemolysis.
Blood (about 20 ml) was drawn from rabbits, put in a flask containing about twenty glass beads of diameter of 8 mm, shaken for mixing gently for about 5 minutes and filtered through gauze. This preparation was carried out before use.

[2] = Toxicity after oral or intravenous administration, mice; assay type: in vivo; settings: mouse, in vivo, read-out: LD₅₀
Description: (§1) The test compound was administered orally or intravenously to Jcl:ICR mice and Jcl:Wistar rats (two mice or rats (male and female) per group). 2-O-octadecylascorbic acid lithium obtained in Example 1 as the test compound was suspended in 0.5% methyl cellulose in the case of oral administration and dissolved in physiological saline in the case of intravenous administration.

Jcl:ICR mice = assay: as above; assay type: in vivo
Description: as §1

[3] = Toxicity after oral or intravenous administration, rats; assay type: in vivo; settings: rat, in vivo, read-out: LD₅₀
Description: as §1

Jcl:Wistar rats = assay: as above; assay type: in vivo
Description: as §1

[4] = system: lipid peroxidation enzyme; assay: Inhibitory activity against lipid peroxidation enzyme (rat liver microsome, carbon tetrachloride, thiobarbituric acid); assay type: biochemical; settings: 300 µM; carbon tetrachloride 20 mM; 37°C for 12 minutes
Description: Rat liver microsome (2 mg), which is a NADPH generating system, the test compound (2-O-octadecylascorbic acid lithium obtained Example 1)(300 µM) and carbon tetrachloride (20 mM) were reacted at 37°C for 12 minutes. A mixed solution of thiobarbituric acid and trichloroacetic acid was added to the solution. Absorbance was measured at 535 nm.

[5] = molecular target: T1, Phospholipase A₂ derived from pig pancreas (Sus scrofa, UniProt P00592); assay: Inhibitory activity against phospholipase A₂; assay type: biochemical; settings: pH 9, read-out: enzymatic activity of the phospholipase inhibited
T1 construct: Phospholipase A₂ derived from pig pancreas; from tissue; host or cells: pig pancreas
Description: Phospholipase A₂ derived from pig pancreas was reacted for 10 minutes in 0.1M glycine-NaOH buffer (pH 9) containing a test compound (2-O-octadecylascorbic acid lithium obtained in Example 1)(300 µM) and labeled phosphatidylcholine. Thereafter, Ca⁺⁺ (2.5 mM) was added and the reaction was continued for additional 5 minutes. The reaction was stopped by adding 0.2M EDTA solution to the reaction mixture. The mixture was extracted with acidic […]. Scintillation of the […] layer was measured.

[6] = molecular target: T2, GST-cdc25Hu2 fused protein (Homo sapiens, UniProt P30305); assay: GST-cdc25Hu2 (protein phosphatase) inhibitory activity; assay type: biochemical; settings: 37°C for 60 minutes, read-out: cdc25 activity inhibited
T2 sequence (P30305 1-580): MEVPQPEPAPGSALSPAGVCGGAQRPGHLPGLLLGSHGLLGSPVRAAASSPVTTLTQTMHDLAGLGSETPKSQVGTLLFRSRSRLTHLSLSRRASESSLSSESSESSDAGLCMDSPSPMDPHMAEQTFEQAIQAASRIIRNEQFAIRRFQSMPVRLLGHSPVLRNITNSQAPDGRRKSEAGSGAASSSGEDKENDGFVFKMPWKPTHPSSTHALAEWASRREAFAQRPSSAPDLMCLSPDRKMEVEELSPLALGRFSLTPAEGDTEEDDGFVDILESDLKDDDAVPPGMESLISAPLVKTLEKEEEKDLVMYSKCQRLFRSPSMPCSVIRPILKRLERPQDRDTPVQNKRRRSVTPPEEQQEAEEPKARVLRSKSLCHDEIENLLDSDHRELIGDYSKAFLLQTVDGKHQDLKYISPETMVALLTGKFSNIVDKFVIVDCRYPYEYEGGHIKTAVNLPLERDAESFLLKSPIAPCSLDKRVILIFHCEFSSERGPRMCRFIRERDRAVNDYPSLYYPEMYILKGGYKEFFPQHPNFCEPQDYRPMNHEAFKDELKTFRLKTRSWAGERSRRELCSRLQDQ
Description: A test compound (2-O-octadecylascorbic acid lithium obtained in Example 1)(80 µM) was added to a reaction mixture containing GST-cdc25Hu2 fused protein (60 µg/ml), p-nitrophenylphosphate (manufactured by Wako Pure Chemical Industries, Ltd.)(10 mM), bovine serum albumin (manufactured by Sigma, U.S.A.)(100 µg/ml), DDT (dithiothreitol) (manufactured by Wako Pure Chemical Industries, Ltd.)(10 mM) and HEPES (2-hydroxyethylpiperazine-N'-2-ethane sulfate)(25 mM, pH 8.0). The mixture was subjected to reaction at 37°C for 60 minutes. Then, absorbance at 405 nm was measured, and the inhibitory activity was evaluated based on the decrease of the absorbance.

[7] = system: myocardial infarction focus; assay: Inhibition of development of myocardial infarction focus after coronary obstruction-reperfusion in rats; assay type: in vivo, Male Wistar-rats; settings: 1 mg/kg intravenous
Description: Male Wistar-rats (11 to 12 weeks old) were used and anethesized with pentobarbital-Na, and medianus thoracotomy was carried out under artificial respiration. After incising the pericardium membrane, the heart was exposed. The base of the left coronary artery together with cardiac muscle was threaded with a sutural needle and thread (marketed by Lederle (Japan), Ltd., 7-0 silk), which were passed through a polyethylene tube, and the thread was pulled. Thus, coronary artery was obstructed. One hour later, the thread was loosed to make blood to flow again. Thirty to sixty minutes after reperfusion, the thorax was closed and the rat was kept under arousal.
After 24 hours, the rats were anesthetized again, and the heart was removed quickly and soaked in ice-cooled physiological saline. The coronary artery was obstructed again to know a dangerous region. Evans' Blue (1%) was perfused through a polyethylene tube inserted into the aorta retrogradely, and normal region was separated from the dangerous region. Thereafter, the left ventricle was divided into 6 parts parallel to the vertical axis and dyed with triphenyl tetrazolium chloride (TTC)(1%) at 37°C for 10 minutes except necrotic cells. The infarction focus was weighed. The test drug (2-O-octadecylascorbic acid obtained in Example 1) was dissolved in physiological saline, and administered intravenously 30 minutes after the coronary obstruction.

Water-solubility = settings: at 28°C
[8] = intravenous administration, dissolved in physiological saline
[9] = oral administration, suspended in 0.5% methyl cellulose

T1 sequence (P00592 23-146): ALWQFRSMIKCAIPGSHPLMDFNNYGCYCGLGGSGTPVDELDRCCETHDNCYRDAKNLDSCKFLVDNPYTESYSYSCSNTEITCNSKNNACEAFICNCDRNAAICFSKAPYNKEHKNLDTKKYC

## CCCCCCCCCCCCCCCCCCOC1=C(O)[C@@H]([C@@H](O)CO)OC1=O.[Li] [2-O-octadecylascorbic acid lithium]
[1]
  hemolysis: not observed
[2]; [8]
  LD50: 25 to 50 mg/kg
[2]; [9]
  LD50: ≥ 2000 mg/kg
Jcl:ICR mice
  Abnormal findings in the autopsy of the survivors: not observed
Jcl:ICR mice; intravenous administration
  autopsy of the dead animals: Pulmonary congestion was observed
[3]; [8]
  LD50: 25 to 50 mg/kg
[3]; [9]
  LD50: ≥ 2000 mg/kg
Jcl:Wistar rats
  Abnormal findings in the autopsy of the survivors: not observed
Jcl:Wistar rats; intravenous administration
  autopsy of the dead animals: Pulmonary congestion was observed
[4]
  inhibitory ratio of the enzymatic activity: 75%
[5]
  inhibition at 300 µM: 59%
[6]
  inhibition at 80 µM: 93.6%
[7]; 30 minutes after the coronary obstruction, N=7, control 60.0±1.8%
  infarction focus per the dangerous region (IS/AR): 40.5±4.6%
[7]; P<0.001
  inhibition in comparison with the control group: 32.7%
[7]; compared with the physiological saline group
  dangerous region per left ventricle (AR/LV): no significant difference
Water-solubility
  water-solubility: 1 g/83 ml (water)
